pIC50: −log10 of the molar value. Like-named read-outs stand apart in the source and are kept apart here.
Key:
pAKT in BT474 cells = experiment: Cell-based pAKT HTRF assay in BT474 cells; conditions: BT474 cells, 4 hr incubation, read-out: pAKT inhibition IC50 in BT474 cells
Procedure, shortened: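 Cells are seeded on day 1 and dosed on day 2 with a 9-point curve (3 μM top, 3-fold). After 4 hr they are lysed and the lysate is mixed with d2- and Eu Cryptate-labelled antibodies. HTRF is read after 4–24 h at room temperature.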

[1] = target: Cys242 in human PIK3CA (157-299) (Homo sapiens (Human), UniProt P42336); experiment: Covalent modification assay using MALDI-TOF MS; format: biochemical; conditions: 4 h reaction time point
Chain of Cys242 in human PIK3CA (157-299) (P42336 157-299): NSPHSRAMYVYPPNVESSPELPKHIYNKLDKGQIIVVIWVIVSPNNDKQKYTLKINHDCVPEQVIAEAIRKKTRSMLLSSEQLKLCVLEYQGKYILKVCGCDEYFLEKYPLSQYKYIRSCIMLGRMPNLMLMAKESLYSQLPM
Procedure, shortened: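 Covalent adduct formation was read by linear-mode MALDI-TOF with sinapinic acid matrix, reported as modified-protein peak height divided by total protein peak heights. Reactions held PIK3CA (157-299) at 1 or 3.33 μM in HEPES/NaCl/MgCl2 buffer, pH 7.3, sampled after 15 min to 4 h at room temperature.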

[2] = 1 μM protein target, 1:5 protein to compound ratio (compounds 853-1279)
[3] = 3.33 μM protein target, 1:7.5 protein to compound ratio (compounds 1-852)
[4] = Homo sapiens, BT-474, Compounds 10-999

| SMILES | pIC50 (pAKT in BT474 cells; Compounds 10-999) | pIC50 (pAKT in BT474 cells; Compounds 1000-1279) | pIC50 (pAKT in BT474 cells; [4]) | % of modification [1, 2] | % of modification [1, 3] |
| --- | --- | --- | --- | --- | --- |
| C=CC(=O)N1CCc2nc(-c3nc(-c4cnn(C)c4N)c4ccsc4c3-c3c(F)cc(F)cc3OC(C)C)sc2C1 [Compound 351] | 6.00 to 7.00 |  |  |  | A (percent of modification of PIK3CA protein ≥75%) |
| C=C(F)C(=O)N1CCn2nc(-c3nc(-c4ccc5c(c4)CCN(C)C5)c4ccsc4c3-c3ccc(F)cc3OCC)cc2C1 [Compound 305] | 6.00 to 7.00 |  |  |  | B (50%<percent of modification <75%) |
| C=CC(=O)N1CCc2nc(-c3nc(N4CCN(C(C)C)CC4)c4ccsc4c3-c3ccc(F)cc3OCCOC)sc2C1 [Compound 140] | 6.00 to 7.00 |  |  |  | A (percent of modification of PIK3CA protein ≥75%) |
| C=CC(=O)N1CCc2ncc(-c3nc(-c4ccc5c(c4)CCN(C)C5)c4ccsc4c3-c3c(F)cc(F)cc3OC(C)C)cc2C1 [Compound 399] | > 7.00 |  |  |  | A (percent of modification of PIK3CA protein ≥75%) |
| C=CC(=O)N1CCn2nc(-c3nc(-c4cnn(C)c4)c4ccsc4c3-c3ccc(F)cc3OC(F)F)cc2C1 [Compound 224] | > 7.00 |  |  |  | A (percent of modification of PIK3CA protein ≥75%) |
| C=C(F)C(=O)N1Cc2cc(-c3nc(-c4ccc5c(cnn5C)c4)c4ccsc4c3-c3c(F)cc(F)cc3OCCOC)nn2CC1C (centres unmarked) [Compound 873] | 6.00 to 7.00 |  |  | D (percent of modification <25%) |  |
| C=CC(=O)N1CCc2nc(-c3nc(-c4cnn(C)c4)c4ccsc4c3-c3c(F)cc(F)cc3OCCOC)sc2C1 [Compound 363] | > 7.00 |  |  |  | A (percent of modification of PIK3CA protein ≥75%) |
| C=CC(=O)N1CCc2ncc(-c3nc(-c4ccc5c(c4)CN(CCOC)CC5(F)F)c4ccsc4c3-c3c(F)cc(F)cc3OCCOC)cc2C1 [Compound 1278] |  | > 7.00 |  | A (percent of modification of PIK3CA protein ≥75%) |  |
| C=CC(=O)N1CCn2nc(-c3nc(C4CCN(C(C)C)CC4)c4ccsc4c3-c3ccc(F)cc3OC(C)C)cc2C1 [Compound 240] | > 7.00 |  |  |  | A (percent of modification of PIK3CA protein ≥75%) |
| C=CC(=O)N1CCc2nc(-c3nc(-c4cnn(C)c4)c4ccsc4c3-c3c(F)cc(F)cc3OCCO)sc2C1 [Compound 398] | > 7.00 |  |  |  | A (percent of modification of PIK3CA protein ≥75%) |
| C=CC(=O)N1CCn2nc(-c3nc(-c4cnn(C)c4)ccc3-c3ccc(F)cc3OCCOC)cc2C1 [Compound 322, 1-[2-[3-[4-fluoro-2-(2-methoxyethoxy)phenyl]-6-(1-methylpyrazol-4-yl)-2-pyridyl]-6,7-dihydro-4H-pyrazolo[1,5-a]pyrazin-5-yl]prop-2-en-1-one] |  |  | < 5.52 |  | C (25%≤percent of modification <50%) |
| C=CC(=O)N1CCC(c2cc(-c3nc(-c4ccc5c(c4)CCNC5)c4ccsc4c3-c3ccc(F)cc3OCCOC)c[nH]c2=O)C1 (centres unmarked) [Compound 70, 5-[7-[4-fluoro-2-(2-methoxyethoxy)phenyl]-4-(1,2,3,4-tetrahydroisoquinolin-6-yl)thieno[3,2-c]pyridin-6-yl]-3-(1-prop-2-enoylpyrrolidin-3-yl)-1H-pyridin-2-one] |  |  | 6.00 to 7.00 |  | A (percent of modification of PIK3CA protein ≥75%) |
| C=CC(=O)N1CCc2nc(-c3nc(-c4ccc5c(c4)CCN(C)C5)c4ccsc4c3-c3c(F)cc(F)cc3OCCOC)sc2C1 [Compound 369] | > 7.00 |  |  |  | A (percent of modification of PIK3CA protein ≥75%) |
| C=CC(=O)N1CCn2nc(-c3nc(N4CCC5(CC4)COC5)c4ccsc4c3-c3ccc(F)cc3OCCOC)cc2C1 [Compound 198, 1-[2-[7-[4-fluoro-2-(2-methoxyethoxy)phenyl]-4-(2-oxa-7-azaspiro[3.5]nonan-7-yl)thieno[3,2-c]pyridin-6-yl]-6,7-dihydro-4H-pyrazolo[1,5-a]pyrazin-5-yl]prop-2-en-1-one] |  |  | > 7.00 |  | A (percent of modification of PIK3CA protein ≥75%) |
| C=CC(=O)N1Cc2cc(-c3nc(-c4ncn(C)n4)c4ccsc4c3-c3c(F)cc(F)cc3OCCOC)nn2CC1C (centres unmarked) [Compound 851] | > 7.00 |  |  |  | A (percent of modification of PIK3CA protein ≥75%) |

The next lines start with results.

| pIC50 (pAKT in BT474 cells; Compounds 10-999) | pIC50 (pAKT in BT474 cells; Compounds 1000-1279) | pIC50 (pAKT in BT474 cells; [4]) | SMILES | % of modification [1, 2] | % of modification [1, 3] |
| --- | --- | --- | --- | --- | --- |
| > 7.00 |  |  | C=CC(=O)N1CCn2nc(-c3nc(-c4cnc5c(c4)CN(C)CC5)c4ccsc4c3-c3c(F)cc(F)cc3OCCOC)cc2C1C (centres unmarked) [Compound 929] | A (percent of modification of PIK3CA protein ≥75%) |  |
| > 7.00 |  |  | C=CC(=O)N1CCn2nc(-c3nc(-c4ccc(=O)n(C(C)C)c4)c4ccsc4c3-c3c(F)cc(F)cc3OCCO)cc2[C@H]1C [Compound 980] | A (percent of modification of PIK3CA protein ≥75%) |  |
| > 7.00 |  |  | C=CC(=O)N1Cc2cc(-c3nc(-c4cnc(C)nc4)c4ccsc4c3-c3c(F)cc(F)cc3OCCO)nn2CC1C (centres unmarked) [Compound 831] |  | A (percent of modification of PIK3CA protein ≥75%) |
| > 7.00 |  |  | C=CC(=O)N1CCn2nc(-c3nc(-c4ccc5c(c4)CCN(C)CC5)c4ccsc4c3-c3c(F)cc(F)cc3OCCOC)cc2C1C (centres unmarked) [Compound 996] | A (percent of modification of PIK3CA protein ≥75%) |  |
| > 7.00 |  |  | C=CC(=O)N1CCn2nc(-c3nc(-c4ccc5c(c4)CCN(C)C5=O)c4ccsc4c3-c3c(F)cc(F)cc3OCCO)cc2C1C (centres unmarked) [Compound 995] | A (percent of modification of PIK3CA protein ≥75%) |  |
| > 7.00 |  |  | C=CC(=O)N1Cc2cc(-c3nc(-c4cn(C)cn4)c4ccsc4c3-c3c(F)cc(F)cc3OC)nn2C[C@H]1C [Compound 843] |  | A (percent of modification of PIK3CA protein ≥75%) |
| > 7.00 |  |  | C=CC(=O)N1CCn2nc(-c3nc(-c4ccc5cnn(C)c5c4)c4ccsc4c3-c3c(F)cc(F)cc3OCCO)cc2[C@H]1C [Compound 776] |  | A (percent of modification of PIK3CA protein ≥75%) |
| > 7.00 |  |  | C=CC(=O)N1Cc2cc(-c3nc(-c4ccnc(N(C)C)c4)c4ccsc4c3-c3c(F)cc(F)cc3OCCOC)nn2C[C@H]1C [Compound 839] |  | A (percent of modification of PIK3CA protein ≥75%) |
| > 7.00 |  |  | C=CC(=O)N1CCc2ncc(-c3nc(-c4ccc(=O)n(C(F)F)c4)c4ccsc4c3-c3c(F)cc(F)cc3OC(C)C)cc2C1 [Compound 335] |  | A (percent of modification of PIK3CA protein ≥75%) |
| > 7.00 |  |  | C=CC(=O)N1CCn2nc(-c3nc(-c4cn(C)cn4)c4ccsc4c3-c3c(F)cc(F)cc3OCCOC)cc2[C@@H]1C [Compound 777] |  | A (percent of modification of PIK3CA protein ≥75%) |
| > 7.00 |  |  | C=CC(=O)N1Cc2cc(-c3nc(-c4ccc5ncn(C)c5c4)c4ccsc4c3-c3c(F)cc(F)cc3OC(C)C)nn2CC1C (centres unmarked) [Compound 488] |  | A (percent of modification of PIK3CA protein ≥75%) |
| > 7.00 |  |  | C=CC(=O)N1CCn2nc(-c3nc(-c4ccc5c(c4)CN(C)C5=O)c4ccsc4c3-c3c(F)cc(F)cc3OCCOC)cc2[C@H]1C [Compound 539] |  | A (percent of modification of PIK3CA protein ≥75%) |
|  |  | > 7.00 | C=CC(=O)N1C[C@H](C)n2nc(-c3nc(-c4ccc5c(c4)CCN(C)C5)c4ccsc4c3-c3c(F)cc(F)cc3OCCOC)cc2[C@@H]1C [Compound 601, 1-[(4S,7S)-2-[7-[2,4-difluoro-6-(2-methoxyethoxy)phenyl]-4-(2-methyl-3,4-dihydro-1H-isoquinolin-6-yl)thieno[3,2-c]pyridin-6-yl]-4,7-dimethyl-6,7-dihydro-4H-pyrazolo[1,5-a]pyrazin-5-yl]prop-2-en-1-one] |  | A (percent of modification of PIK3CA protein ≥75%) |
| > 7.00 |  |  | C=CC(=O)N1CCn2nc(-c3nc(-c4cnn(C)c4)c4ccsc4c3-c3c(F)cc(F)cc3OCCOC)cc2[C@@H]1C [Compound 649] |  | A (percent of modification of PIK3CA protein ≥75%) |
| > 7.00 |  |  | C=CC(=O)N1Cc2cc(-c3nc(-c4ccc5cn(C)nc5c4)c4ccsc4c3-c3c(F)cc(F)cc3OCCOC)nn2C[C@H]1C [Compound 737] |  | A (percent of modification of PIK3CA protein ≥75%) |
| > 7.00 |  |  | C=CC(=O)N1CCn2nc(-c3nc(-c4cnc5c(cnn5C)c4)c4ccsc4c3-c3c(F)cc(F)cc3OCCOC)cc2[C@@H]1C [Compound 888] | A (percent of modification of PIK3CA protein ≥75%) |  |

Reference: patent publication US20250230138A1, “COMPOUNDS HAVING A T-STRUCTURE FORMED BY AT LEAST FOUR CYCLES FOR USE IN THE TREATMENT OF CANCER AND OTHER INDICATIONS” (TheRas, Inc., priority 2022, published 2025)
